Values quoted from earlier work, collected in patent US20160228384A1, “EMULSION CONTAINING TWO OILS AND STABILIZERS” (NANOMEDEX, LLC, priority 2015, published 2016).

Tests used:
[1] = not given; remark: listed apart in the source

For `CCCCCCCC(=O)OCC` [Ethyl octanoate], the “Log P” value is listed as 3.5, the “Solubility in Water” value [1] is listed as 0.051 wt % and the “Water Solubility in Solvent” value [1] is listed as 0.90 wt %.

For `CCCCCCCCOC(C)=O` [Octyl acetate], the “Log P” value is listed as 3.4, the “Solubility in Water” value [1] is listed as 0.018 wt % and the “Water Solubility in Solvent” value [1] is listed as 0.02 wt %.

For `CCCCOC(C)=O` [Butyl acetate], the “Log P” value is given as 1.8, the “Solubility in Water” value [1] is given as 0.64 wt % and the “Water Solubility in Solvent” value [1] is given as 0.98 wt %.

For `CCCCCCOC(C)=O` [Hexyl acetate], the “Log P” value is given as 2.4, the “Solubility in Water” value [1] is given as 0.043 wt % and the “Water Solubility in Solvent” value [1] is given as 0.566 wt %.

In the case of `CCCCCC(=O)OCC` [Ethyl hexanoate], the “Log P” value is given as 2.4, the “Solubility in Water” value [1] is given as 0.083 wt % and the “Water Solubility in Solvent” value [1] is given as 0.47 wt %.

In the case of `CCCC(=O)OCC` [Ethyl butyrate], the “Log P” value is given as 1.7, the “Solubility in Water” value [1] is given as 0.69 wt % and the “Water Solubility in Solvent” value [1] is given as 0.79 wt %.
